Results from US20250215101A1, “DR5 Agonist and PLK1 Inhibitor or CDK Inhibitor Combination Therapy” (Inhibrx Biosciences, Inc., priority 2022, published 2025).

What was measured:
Test in all cases: Cytotoxicity assay, pancreatic cell line panel, onvansertib +/- 1 nM INBRX-109
Format in all cases: cell-based
[1] = test system: Capan-2; settings: for Max Cytotox at 600 nM: Capan-2; for EC50: Homo sapiens, Capan-2, Capan-2
Method: (§1) Monolayer cultures of each cell line were harvested for compound screening as detailed below.
(§2) Also on day 2, test and control articles were added.
(§3) On day 4, viability measurements were taken. […] Data was graphed in GraphPad Prism 9.
(§4) The results for a panel of colorectal cancer cell lines are shown in Table 3 and FIGS. 4-6, and the results for a panel of pancreatic cell lines are shown in Table 4 and FIGS. 7 and 8.

[2] = test system: HPAF-II; settings: for EC50: Homo sapiens
Method: as §1, §2, §3, §4

[3] = test system: HuP-T4; settings: for EC50: Homo sapiens, HuP-T4, HuP-T4; for Max Cytotox at 600 nM: HuP-T4
Method: as §1, §2, §3, §4

[4] = test system: KP4; settings: for EC50: Homo sapiens, KP-4, KP4; for Max Cytotox at 600 nM: KP4
Method: as §1, §2, §3, §4

[5] = test system: MIA PaCa-2; settings: for EC50: Homo sapiens, MIA PaCa-2, MIA PaCa-2; for Max Cytotox at 600 nM: MIA PaCa-2
Method: as §1, §2, §3, §4

[6] = test system: PANC-1; settings: for EC50: Homo sapiens, PANC-1, PANC-1; for Max Cytotox at 600 nM: PANC-1
Method: as §1, §2, §3, §4

[7] = test system: PL45; settings: for EC50: PL45, PL45; for Max Cytotox at 600 nM: PL45
Method: as §1, §2, §3, §4

[8] = test system: PSN-1; settings: for EC50: Homo sapiens, PSN1, PSN-1; for Max Cytotox at 600 nM: PSN-1
Method: as §1, §2, §3, §4

[9] = test system: Panc 03.27; settings: for EC50: Homo sapiens, PANC-03-27, Panc 03.27; for Max Cytotox at 600 nM: Panc 03.27
Method: as §1, §2, §3, §4

[10] = test system: Panc 05.04; settings: for EC50: Panc 05.04, Panc 05.04; for Max Cytotox at 600 nM: Panc 05.04
Method: as §1, §2, §3, §4

[11] = test system: Panc 10.05; settings: for EC50: Homo sapiens, Panc1005, Panc 10.05; for Max Cytotox at 600 nM: Panc 10.05
Method: as §1, §2, §3, §4

[12] = test system: SU.86.86; settings: for EC50: Homo sapiens, SU.86.86, SU.86.86; for Max Cytotox at 600 nM: SU.86.86
Method: as §1, §2, §3, §4

[13] = test system: SW-1990; settings: for EC50: Homo sapiens, SW1990, SW-1990; for Max Cytotox at 600 nM: SW-1990
Method: as §1, §2, §3, §4

CN1CCN(c2ccc(OC(F)(F)F)c(Nc3ncc4c(n3)-c3c(c(C(N)=O)nn3CCO)CC4)c2)CC1 [Onvansertib]
Max Cytotox at 600 nM ([1]; onvansertib + 1 nM INBRX-109): 46.2%
Max Cytotox at 600 nM ([1]; onvansertib only): 3.9%
EC50 ([1]; onvansertib + 1 nM INBRX-109): 134 nM
EC50 ([1]; onvansertib only): 150 nM
EC50 ([2]; onvansertib + 1 nM INBRX-109): 51.9 nM
EC50 ([2]; onvansertib only): 63.3 nM
Max Cytotox at 600 nM ([2]; onvansertib + 1 nM INBRX-109): 68.2%
Max Cytotox at 600 nM ([2]; onvansertib only): 27.2%
EC50 ([3]; onvansertib + 1 nM INBRX-109): 35.1 nM
EC50 ([3]; onvansertib only): 138 nM
Max Cytotox at 600 nM ([3]; onvansertib + 1 nM INBRX-109): 85.3%
Max Cytotox at 600 nM ([3]; onvansertib only): 33.7%
EC50 ([4]; onvansertib + 1 nM INBRX-109): 82.4 nM
EC50 ([4]; onvansertib only): 105 nM
Max Cytotox at 600 nM ([4]; onvansertib + 1 nM INBRX-109): 97.8%
Max Cytotox at 600 nM ([4]; onvansertib only): 74.7%
EC50 ([5]; onvansertib + 1 nM INBRX-109): 81.3 nM
EC50 ([5]; onvansertib only): 179 nM
Max Cytotox at 600 nM ([5]; onvansertib + 1 nM INBRX-109): 96.4%
Max Cytotox at 600 nM ([5]; onvansertib only): 67.0%
EC50 ([6]; onvansertib + 1 nM INBRX-109): 121 nM
EC50 ([6]; onvansertib only): 152 nM
Max Cytotox at 600 nM ([6]; onvansertib + 1 nM INBRX-109): 87.2%
Max Cytotox at 600 nM ([6]; onvansertib only): 36.2%
EC50 ([7]; onvansertib + 1 nM INBRX-109): 68.1 nM
EC50 ([7]; onvansertib only): 83.6 nM
Max Cytotox at 600 nM ([7]; onvansertib + 1 nM INBRX-109): 82.2%
Max Cytotox at 600 nM ([7]; onvansertib only): 56.5%
EC50 ([8]; onvansertib + 1 nM INBRX-109): 63 nM
EC50 ([8]; onvansertib only): 85.3 nM
Max Cytotox at 600 nM ([8]; onvansertib + 1 nM INBRX-109): 98.0%
Max Cytotox at 600 nM ([8]; onvansertib only): 83.2%
EC50 ([9]; onvansertib + 1 nM INBRX-109): 90 nM
EC50 ([9]; onvansertib only): 122 nM
Max Cytotox at 600 nM ([9]; onvansertib + 1 nM INBRX-109): 87.5%
Max Cytotox at 600 nM ([9]; onvansertib only): 36.7%
EC50 ([10]; onvansertib + 1 nM INBRX-109): 61.1 nM
EC50 ([10]; onvansertib only): 205 nM
Max Cytotox at 600 nM ([10]; onvansertib + 1 nM INBRX-109): 97.4%
Max Cytotox at 600 nM ([10]; onvansertib only): 44.4%
EC50 ([11]; onvansertib + 1 nM INBRX-109): 81.7 nM
EC50 ([11]; onvansertib only): 81.9 nM
Max Cytotox at 600 nM ([11]; onvansertib + 1 nM INBRX-109): 83.3%
Max Cytotox at 600 nM ([11]; onvansertib only): 47.2%
EC50 ([12]; onvansertib + 1 nM INBRX-109): 91.4 nM
EC50 ([12]; onvansertib only): 629 nM
Max Cytotox at 600 nM ([12]; onvansertib + 1 nM INBRX-109): 98.9%
Max Cytotox at 600 nM ([12]; onvansertib only): 30.5%
EC50 ([13]; onvansertib + 1 nM INBRX-109): 598 nM
EC50 ([13]; onvansertib only): 700 nM
Max Cytotox at 600 nM ([13]; onvansertib + 1 nM INBRX-109): 68.7%
Max Cytotox at 600 nM ([13]; onvansertib only): 13.4%
